From patent US7479493B2, “Substituted benzyl amine compounds” (Janssen Pharmaceutica N.V., priority 2006, dated 2009) come the findings set out here.

SMILES strings stand for the structures.

The target of one experiment is cloned human H3 receptor (Homo sapiens, UniProt Q9Y5N1). In words: H3 Receptor Binding. As to conditions: cloned human H3 receptor stably expressed in SK-N-MC cells.
The target of a further experiment is Rat SERT (Rattus norvegicus, UniProt P31652). Kind of experiment: biochemical.
Chain of Rat SERT (P31652 whole entry): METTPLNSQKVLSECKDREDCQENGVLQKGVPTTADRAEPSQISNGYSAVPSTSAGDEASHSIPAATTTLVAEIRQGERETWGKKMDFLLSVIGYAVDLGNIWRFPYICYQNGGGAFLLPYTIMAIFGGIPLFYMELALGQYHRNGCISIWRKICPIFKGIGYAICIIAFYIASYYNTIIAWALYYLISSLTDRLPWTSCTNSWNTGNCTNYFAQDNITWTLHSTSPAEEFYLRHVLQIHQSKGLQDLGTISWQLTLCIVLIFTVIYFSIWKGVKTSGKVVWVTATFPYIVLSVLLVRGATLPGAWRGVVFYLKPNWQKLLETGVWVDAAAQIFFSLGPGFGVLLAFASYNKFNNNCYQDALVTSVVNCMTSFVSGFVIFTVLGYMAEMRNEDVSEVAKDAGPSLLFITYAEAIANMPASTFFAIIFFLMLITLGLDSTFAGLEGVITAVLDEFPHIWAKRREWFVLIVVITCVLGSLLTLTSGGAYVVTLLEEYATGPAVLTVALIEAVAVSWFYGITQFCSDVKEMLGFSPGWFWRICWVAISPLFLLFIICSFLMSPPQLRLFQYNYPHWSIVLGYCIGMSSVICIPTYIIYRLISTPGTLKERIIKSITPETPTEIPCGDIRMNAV

Chain of cloned human H3 receptor (Q9Y5N1 whole entry): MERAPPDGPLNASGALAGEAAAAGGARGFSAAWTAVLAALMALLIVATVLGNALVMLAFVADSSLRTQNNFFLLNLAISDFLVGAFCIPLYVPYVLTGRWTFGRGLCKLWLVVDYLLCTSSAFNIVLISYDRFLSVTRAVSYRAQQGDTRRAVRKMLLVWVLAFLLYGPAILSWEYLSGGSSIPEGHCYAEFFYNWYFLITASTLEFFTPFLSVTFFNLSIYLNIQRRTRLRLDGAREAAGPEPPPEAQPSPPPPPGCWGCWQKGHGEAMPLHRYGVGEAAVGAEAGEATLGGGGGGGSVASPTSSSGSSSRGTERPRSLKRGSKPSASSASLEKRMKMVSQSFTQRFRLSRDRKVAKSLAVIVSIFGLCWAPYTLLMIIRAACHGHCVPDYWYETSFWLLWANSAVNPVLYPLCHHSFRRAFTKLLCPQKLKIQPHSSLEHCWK
Description for Rat SERT: The supernatant was removed and re-centrifuged at 15,000 rpm for 30 min. […] Membranes were incubated with 0.6 nM [^3H]-Citalopram plus/minus test compounds for 60 min at 25° C. and harvested by rapid filtration over GF/C glass fiber filters (pretreated with 0.3% polyethylenimine) followed by four washes with ice-cold buffer. Nonspecific binding was defined in the presence of 100 μM fluoxetine.

For orientation: Ki means a dissociation constant, usually derived from enzyme kinetics or from competition with a known ligand. A low value points to a stronger hold on the target. Turning to `CNCc1cc(CN2CCC(=O)N(C(C)C)CC2)ccc1Oc1ccc(Cl)c(Cl)c1` [Example 68, 1-[4-(3,4-Dichloro-phenoxy)-3-methylaminomethyl-benzyl]-4-isopropyl-[1,4]diazepan-5-one], the figures for the Ki at cloned human H3 receptor and on Rat SERT were 6300 nM and 7 nM, respectively.
On the same counts, the results for `CNCc1cc(C(=O)N2CCN(C3CC3)CC2)ccc1Oc1ccc(C)nc1` [Example 20, (4-Cyclopropyl-piperazin-1-yl)-[3-methylaminomethyl-4-(6-methyl-pyridin-3-yloxy)-phenyl]-methanone] are 59 nM and 190 nM.
In the case of `CNCc1cc(N2CCCN(C(C)C)CC2)ccc1Oc1ccc(Cl)c(Cl)c1` [Example 55, [2-(3,4-Dichloro-phenoxy)-5-(4-isopropyl-[1,4]diazepan-1-yl)-benzyl]-methyl-amine], the values for the Ki at cloned human H3 receptor and on Rat SERT were 27 nM and 10 nM, respectively.
As to `CNCc1cc(N2CCN(C3CC3)CCC2=O)ccc1Oc1ccc(SC)cc1` [Example 57, 1-Cyclopropyl-4-[3-methylaminomethyl-4-(4-methylsulfanyl-phenoxy)-phenyl]-[1,4]diazepan-5-one], the results for the Ki at cloned human H3 receptor and on Rat SERT were 37 nM and 4 nM, respectively.
With `CNCc1cc(C(=O)N2CCN(C3CC3)CC2)ccc1Oc1cccc(Cl)c1F` [Example 24, [4-(3-Chloro-2-fluoro-phenoxy)-3-methylaminomethyl-phenyl]-(4-cyclopropyl-piperazin-1-yl)-methanone], the Ki was found to be 31 nM on cloned human H3 receptor and 130 nM on Rat SERT.
Take `COCCN(CCOC)Cc1ccc(C(=O)N2CCN(C(C)C)CC2)cc1Oc1ccccc1` [Example 85, (4-{[Bis-(2-methoxy-ethyl)-amino]-methyl}-3-phenoxy-phenyl)-(4-isopropyl-piperazin-1-yl)-methanone]: affinity on cloned human H3 receptor was put at a Ki of 12 nM. That is a double-digit nanomolar value.
In the case of `CNCc1cc(CN2CCN(C3CCC3)CCC2=O)ccc1Oc1ccc(Cl)c(Cl)c1` [Example 70, 1-Cyclobutyl-4-[4-(3,4-dichloro-phenoxy)-3-methylaminomethyl-benzyl]-[1,4]diazepan-5-one], the Ki at cloned human H3 receptor is 19 nM; on Rat SERT it was 5 nM.
For `CNCc1cc(N2CCN(C3CC3)CC2)ccc1Oc1ccc(Cl)c(Cl)c1` [Example 46, [5-(4-Cyclopropyl-piperazin-1-yl)-2-(3,4-dichloro-phenoxy)-benzyl]-methyl-amine], in that order: 49 nM and 4 nM.
On to `COCCN(CCOC)Cc1ccc(C(=O)N2CCN(C3CC3)CC2)cc1Oc1ccc(C)nc1C` [Example 82, [4-{[Bis-(2-methoxy-ethyl)-amino]-methyl}-3-(2,6-dimethyl-pyridin-3-yloxy)-phenyl]-(4-cyclopropyl-piperazin-1-yl)-methanone], for which the Ki at cloned human H3 receptor was found to be 200 nM.
In the case of `Cc1ccc(Oc2cc(C(=O)N3CCN(C4CC4)CC3)ccc2CN(C)C)c(C)n1` [Example 80, (4-Cyclopropyl-piperazin-1-yl)-[4-dimethylaminomethyl-3-(2,6-dimethyl-pyridin-3-yloxy)-phenyl]-methanone], the values for the Ki at cloned human H3 receptor and on Rat SERT were 140 nM and 500 nM, respectively.
For `CSc1ccc(Oc2ccc(CN3CCN(C(C)C)CC3)cc2CNC(C)C)cc1` [Example 64, Isopropyl-[5-(4-isopropyl-piperazin-1-ylmethyl)-2-(4-methylsulfanyl-phenoxy)-benzyl]-amine], in that order: 0.5 nM and 7 nM.
On the same counts, the results for `CNCc1ccc(C(=O)N2CCN(C3CC3)CC2)cc1Oc1ccc(Cl)c(Cl)c1` [Example 39, (4-Cyclopropyl-piperazin-1-yl)-[3-(3,4-dichloro-phenoxy)-4-methylaminomethyl-phenyl]-methanone] are 15 nM and 17 nM.
The compound `CNCCNC(=O)c1ccc(CN(C)C)c(Oc2cccnc2)c1` [Example 89, 4-Dimethylaminomethyl-N-(2-methylamino-ethyl)-3-(pyridin-3-yloxy)-benzamide] had a Ki on cloned human H3 receptor of 1900 nM.
Regarding `CSc1ccc(Oc2ccc(CN3CCN(C(C)C)CC3)cc2CNC2CC2)cc1` [Example 60, Cyclopropyl-[5-(4-isopropyl-piperazin-1-ylmethyl)-2-(4-methylsulfanyl-phenoxy)-benzyl]-amine], the results for the Ki on cloned human H3 receptor and at Rat SERT were 2 nM and 3 nM, respectively.
Consider `CNCc1cc(CN2CCN(C(C)C)CC2=O)ccc1Oc1ccc(Cl)c(Cl)c1` [Example 67, 1-[4-(3,4-Dichloro-phenoxy)-3-methylaminomethyl-benzyl]-4-isopropyl-piperazin-2-one], for which the Ki on cloned human H3 receptor is 6 nM; at Rat SERT it was 4 nM.
On to `CNCc1cc(C(=O)N2CCN(C3CC3)CC2)ccc1OCc1ccc(Cl)c(Cl)c1` [Example 59, (4-Cyclopropyl-piperazin-1-yl)-[4-(3,4-dichloro-benzyloxy)-3-methylaminomethyl-phenyl]-methanone], for which the Ki turned out to be 70 nM on cloned human H3 receptor and 4 nM at Rat SERT.
For `CNCc1cc(C(=O)NCCN2CCCC2)ccc1Oc1cccc(Cl)c1` [Example 71, 4-(3-Chloro-phenoxy)-3-methylaminomethyl-N-(2-pyrrolidin-1-yl-ethyl)-benzamide], in that order: 6 nM and 2 nM.
With `CNCc1cc(C(=O)N2CCN(C3CC3)CC2)ccc1Oc1ccc(Cl)cc1F` [Example 22, [4-(4-Chloro-2-fluoro-phenoxy)-3-methylaminomethyl-phenyl]-(4-cyclopropyl-piperazin-1-yl)-methanone], the Ki was 18 nM on cloned human H3 receptor and 21 nM on Rat SERT.
Turning to `CNCc1cc(C(=O)N2CC[C@H](N(C)C)C2)ccc1Oc1ccc(SC)cc1` [Example 25, (S)-(3-Dimethylamino-pyrrolidin-1-yl)-[3-methylaminomethyl-4-(4-methylsulfanyl-phenoxy)-phenyl]-methanone], the Ki on cloned human H3 receptor was 7 nM; on Rat SERT, 0.9 nM.
For `CNCc1cc(N2CCN(C(C)C)CC2)ccc1Oc1ccc(Cl)c(Cl)c1` [Example 47, [2-(3,4-Dichloro-phenoxy)-5-(4-isopropyl-piperazin-1-yl)-benzyl]-methyl-amine], the Ki on cloned human H3 receptor turned out to be 20 nM; on Rat SERT, 2 nM.
In the case of `CNCc1cc(N2CCN(C3CC3)CC2)ccc1Oc1ccc(SC)cc1` [Example 45, [5-(4-Cyclopropyl-piperazin-1-yl)-2-(4-methylsulfanyl-phenoxy)-benzyl]-methyl-amine], the Ki on cloned human H3 receptor came out at 76 nM; at Rat SERT, 1 nM.
As to `CNCc1cc(C(=O)NCCCN(C)C)ccc1Oc1cccc(Cl)c1` [Example 27, 4-(3-Chloro-phenoxy)-N-(3-dimethylamino-propyl)-3-methylaminomethyl-benzamide], the Ki is 48 nM on cloned human H3 receptor and 0.8 nM at Rat SERT.
With `CNCc1cc(N2CCCN(C3CC3)CC2)ccc1Oc1ccc(SC)cc1` [Example 53, [5-(4-Cyclopropyl-[1,4]diazepan-1-yl)-2-(4-methylsulfanyl-phenoxy)-benzyl]-methyl-amine], the values for the Ki at cloned human H3 receptor and on Rat SERT were 28 nM and 6 nM, respectively.
With `CN(C)C1CCN(C(=O)c2ccc(CNC3CC3)c(Oc3cccnc3)c2)C1` (stereo not shown) [Example 32, [4-Cyclopropylaminomethyl-3-(pyridin-3-yloxy)-phenyl]-(3-dimethylamino-pyrrolidin-1-yl)-methanone], the Ki on cloned human H3 receptor amounted to 26 nM; at Rat SERT, 6000 nM.
On the same counts, the results for `CNCc1cc(N2CCCN(C(C)C)CC2)ccc1Oc1ccc(SC)cc1` [Example 52, [5-(4-Isopropyl-[1,4]diazepan-1-yl)-2-(4-methylsulfanyl-phenoxy)-benzyl]-methyl-amine] are 8 nM and 1 nM.
On the same counts, the results for `CNCc1cc(N2CCN(C(C)C)CC2)ccc1Oc1ccc(SC)cc1` [Example 40, [5-(4-Isopropyl-piperazin-1-yl)-2-(4-methylsulfanyl-phenoxy)-benzyl]-methyl-amine] are 7 nM and 0.1 nM.
The compound `CN(C)Cc1ccc(C(=O)N2CCCCC2)cc1Oc1ccccc1` [Example 84, (4-Dimethylaminomethyl-3-phenoxy-phenyl)-piperidin-1-yl-methanone] registered a Ki on cloned human H3 receptor of 4500 nM.
On the same count and under the same terms, the result for `CNCc1cc(C(=O)N2CCN(C3CC3)CC2)ccc1Sc1ccc(Cl)cc1` [Example 28, [4-(4-Chloro-phenylsulfanyl)-3-methylaminomethyl-phenyl]-(4-cyclopropyl-piperazin-1-yl)-methanone] reads 150 nM; that for `CN(C)Cc1ccc(C(=O)NCCN(C)C2CC2)cc1Oc1cccnc1` [Example 90, N-[2-(Cyclopropyl-methyl-amino)-ethyl]-4-dimethylaminomethyl-3-(pyridin-3-yloxy)-benzamide], 45 nM.
`CC(C)N1CCN(Cc2ccc(C(=O)N3CCCCC3)cc2Oc2ccccc2)CC1` [Example 87, [4-(4-Isopropyl-piperazin-1-ylmethyl)-3-phenoxy-phenyl]-piperidin-1-yl-methanone] showed a Ki at cloned human H3 receptor of 280 nM.
On the same count and under the same terms, to `COc1cccc(Oc2ccc(C(=O)N3CCN(C(C)C)CC3)cc2CN(C)C(=O)OC(C)(C)C)c1` [Example 91, [5-(4-Isopropyl-piperazine-1-carbonyl)-2-(3-methoxy-phenoxy)-benzyl]-methyl-carbamic acid tert-butyl ester] belongs 58 nM.
On cloned human H3 receptor, `CC(C)N1CCN(Cc2ccc(C(=O)N3CCCCC3)cc2Oc2cccnc2)CC1` [Example 88, [4-(4-Isopropyl-piperazin-1-ylmethyl)-3-(pyridin-3-yloxy)-phenyl]-piperidin-1-yl-methanone] returned a Ki of 220 nM.
Still for that read-out and setting: the result for `Cc1ccc(Oc2cc(C(=O)N3CCN(C(C)C)CC3)ccc2CN2CCOCC2)c(C)n1` [Example 83, [3-(2,6-Dimethyl-pyridin-3-yloxy)-4-morpholin-4-ylmethyl-phenyl]-(4-isopropyl-piperazin-1-yl)-methanone] reads 21 nM; that for `CNCc1cc(C(=O)N2CCN(C3CC3)CC2)ccc1Sc1ccccn1` [Example 29, (4-Cyclopropyl-piperazin-1-yl)-[3-methylaminomethyl-4-(pyridin-2-ylsulfanyl)-phenyl]-methanone], 170 nM; that for `COCCN(CCOC)Cc1ccc(C(=O)N2CCC(N(C)C)CC2)cc1Oc1cccnc1` [Example 86, [4-{[Bis-(2-methoxy-ethyl)-amino]-methyl}-3-(pyridin-3-yloxy)-phenyl]-(4-dimethylamino-piperidin-1-yl)-methanone], 200 nM.
